Some results are limits rather than exact numbers.

The subject of the assay is NCI-H460. Description: Cytotoxicity against human NCI-H460 cells incubated for 72 hrs by cell-titer 96 aqueous non-radioactive cell proliferation assay. It counts as functional, cell-based. The conditions noted are these: NCI-H460, 72 h.
One may read the IC50 as the concentration needed to halve the response being measured. In the case of `CC(=O)OC/C(=C/CO)[C@@H]1C[C@@H]2[C@@]3(C)CCCC(C)(C)[C@@H]3CC[C@@]2(C)O1`, the IC50 is greater than 10 µM. For the compound `CC1(C)CCC[C@]2(C)[C@H]3C[C@@H](/C(=C\CO)CO)O[C@]3(C)CC[C@@H]12`, the IC50 was greater than 10 µM. The same measure for `CC(=O)OC[C@]1([C@@H]2C[C@@H]3[C@@]4(C)CCCC(C)(C)[C@@H]4CC[C@@]3(C)O2)O[C@H]1CO`: greater than 10 µM. The same measure for `CC(=O)OCC(O)(C(O)CO)[C@@H]1C[C@@H]2[C@@]3(C)CCCC(C)(C)[C@@H]3CC[C@@]2(C)O1` (some centres undefined): greater than 10 µM; for `CC(=O)OCC(O)C(O)(CO)[C@@H]1C[C@@H]2[C@@]3(C)CCCC(C)(C)[C@@H]3CC[C@@]2(C)O1` (some centres undefined): greater than 10 µM. For the compound `CC1(C)CCC[C@]2(C)[C@H]3C[C@@H](C(O)(CO)C(O)CO)O[C@]3(C)CC[C@@H]12` (some centres undefined), the IC50 was greater than 10 µM. In the case of `C/C(=C\CC/C=C(\C)CC/C=C(\C)CCC(O)C(C)(C)O)C/C=C/[C@@]1(C)CC[C@@H](C(C)(C)O)O1` (some centres undefined), the IC50 was 9 µM. On to `C/C(=C\CCC/C(C)=C/C(=O)C[C@@]1(C)CC[C@@H](C(C)(C)O)O1)CC/C=C(\C)CCC(O)C(C)(C)O` (some centres undefined), for which the IC50 worked out at 6 µM. The same measure for `CC1(C)CC[C@]2(C(=O)O)CC[C@]3(C)C(=CC[C@@H]4[C@@]5(C)CC[C@H](O[C@@H]6O[C@H](C(=O)O)[C@@H](O)[C@H](O)[C@H]6OC6O[C@H](CO)[C@@H](O)[C@H](O)[C@H]6O)C(C)(C)[C@@H]5CC[C@]43C)[C@@H]2C1` (some centres undefined): 7 µM; for `CC1(C)CCC[C@]2(C)[C@H]3C[C@@H]([C@@]4(CO)O[C@H]4CO)O[C@]3(C)CC[C@@H]12`: greater than 10 µM; for `CC(=O)OC[C@@]1([C@@H]2C[C@@H]3[C@@]4(C)CCCC(C)(C)[C@@H]4CC[C@@]3(C)O2)O[C@@H]1CO`: greater than 10 µM. With `CC1(C)CCC[C@]2(C)[C@H]3C[C@@H]([C@]4(CO)O[C@@H]4CO)O[C@]3(C)CC[C@@H]12` the figure was greater than 10 µM; with `C/C(=C\CC/C=C(\C)CC/C=C(\C)CC[C@@H](O)C(C)(C)O)CC/C=C(\C)CC[C@@H](O)C(C)(C)O`, 7 µM; with `CC1(C)CC[C@]2(C(=O)O)CC[C@]3(C)C(=CC[C@@H]4[C@@]5(C)CC[C@H](O[C@@H]6O[C@H](C(=O)O)[C@@H](O)[C@H](O)[C@H]6O)C(C)(C)[C@@H]5CC[C@]43C)[C@@H]2C1`, 6 µM.

Source of the values: ChEMBL document CHEMBL3593211, “Digging Deep for New Compounds from the Compass Plant, Silphium laciniatum” (J Nat Prod, 2015).
